Results from patent publication US20150258197A1, “EUTECTIC ISOMETHEPTENE MUCATE” (TONIX PHARMA HOLDINGS LIMITED, priority 2014, published 2015).

Key:
[1] = DSC/XRPD of binary mixtures of isometheptene mucate and mannitol (eutectic formation); type: physicochemical; details: binary mixtures at different ratios
Protocol: Because mannitol is a common excipient in solid drug formulations, it was examined for compatibility with racemic isometheptene mucate and investigated using DSC and the interactions occurring were assessed. […] To confirm the formation of a eutectic and to characterize its physical properties, several binary mixtures at different ratios of racemic isometheptene mucate and excipient were prepared and analyzed by DSC and by XRPD. The eutectic formation improved the cohesion between the racemic isometheptene mucate and excipient particles and assured better physical linking between the two.
In order to confirm the eutectic formation and to characterize its physical properties, several binary mixtures at different ratios of racemic isometheptene mucate-excipient were prepared and analyzed by DSC and by X-ray powder diffraction (XRPD). […] For each DSC heating curve, the onset temperature and the enthalpy were evaluated both for the eutectic contribute and for the excess of component. The recorded values were plotted and a phase diagram between the two components was obtained with a characteristic profile of phase diagrams of eutectic mixtures. […]
Aliquots of racemic isometheptene mucate API and mannitol were weighed in the ratios described below and ground in an agate mortar, and the homogeneous mixtures subsequently analyzed. […]

mice [2] = test: Formalin Test, late phase (licking score); type: in vivo; details: mouse, 5% formalin intraplantar, three doses p.o. 15 minutes before the test, 15-50 min after formalin
Source text: Common mouse models for pain include the Formalin Test (Wheeler-Aceto, et al., Psychopharmacology, 104, 35-44, 1991), the Hot Plate Test (Eddy and Leimbach, J. Pharmacol. Exp. Ther., 107, 385-393, 1953), and the Tail-flick Test (D'Amour and Smith, J. Pharmacol. Exp. Ther., 1, 74-79, 1941). These methods detect analgesic activity of compositions of interest. In the Formalin Test, mice are given an intraplantar injection of 5% formalin into one posterior hindpaw to induce paw licking. Test compositions are given to the mice before treatment with formalin and the mice are evaluated and compared to a control group. In the Hot Plate Test, mice are placed onto a hot metal plate maintained at 54° C. and the latency to the first foot-lick is measured. As with the Formalin test, compositions of interest are given to the mice before the test and the mice are evaluated and compared to a control group. In the Tail-flick Test, a mouse's tail is heated by means of a thermal light source, and the latency before the animal withdraws its tail is measured. […]
Mice were given an intraplantar injection of 5% formalin (25 μL) into one posterior hindpaw. […] Mice were briefly observed at one minute intervals between 15 and 50 minutes after the injection of formalin and the number of occasions that the mice were observed licking the injected paw was recorded. […]

mice [3] = test: Tail-flick Test; type: in vivo; details: mouse
Source text: Common mouse models for pain include the Formalin Test (Wheeler-Aceto, et al., Psychopharmacology, 104, 35-44, 1991), the Hot Plate Test (Eddy and Leimbach, J. Pharmacol. Exp. Ther., 107, 385-393, 1953), and the Tail-flick Test (D'Amour and Smith, J. Pharmacol. Exp. Ther., 1, 74-79, 1941). These methods detect analgesic activity of compositions of interest. In the Formalin Test, mice are given an intraplantar injection of 5% formalin into one posterior hindpaw to induce paw licking. Test compositions are given to the mice before treatment with formalin and the mice are evaluated and compared to a control group. In the Hot Plate Test, mice are placed onto a hot metal plate maintained at 54° C. and the latency to the first foot-lick is measured. As with the Formalin test, compositions of interest are given to the mice before the test and the mice are evaluated and compared to a control group. In the Tail-flick Test, a mouse's tail is heated by means of a thermal light source, and the latency before the animal withdraws its tail is measured. Test compositions are administered before the test, and compared with a vehicle control group. The analgesic activity of the compositions described herein can be identified using the mouse formalin, hot plate, and tail-flick tests.
A method for detecting analgesic activity followed that described by D'Amour and Smith (J. Pharmacol. Exp. Ther., 1, 74-79, 1941). The mouse's tail was heated by means of a thermal light source (20 volts). The latency before the animal withdraws its tail was measured (maximum: 15 seconds).
Ten mice were studied per group. The test was performed partially blind.
The test substances selected from (R)-isometheptene mucate, and (S)-isometheptene mucate were evaluated at three doses ([…]), administered p.o. 15 minutes before the test, and compared with a vehicle control group. […]
Data with the test substance were analyzed by comparing treated groups with vehicle control using ANOVA followed by post-hoc Dunnett's tests. Data with the reference substance were analyzed using unpaired Student's t tests.

Interaction with mannitol (eutectic vs adduct) [1]: only a physical eutectic formation
Compound: CN[C@H](C)CCC=C(C)C [(R)-isometheptene mucate]
Licking score compared to vehicle (mice [2]): reduction in licking score
Tail-flick activity relative to morphine (mice [3]; 100 mg/kg p.o. versus morphine 32 mg/kg): activity similar to that of morphine
Tail flick latency compared to vehicle (mice [3]; thermal light source, three doses (10, 30, 100) p.o. 15 minutes before the test): longer tail flick latency times
